Counter-ions that a name gives are not always drawn.
Tests used:
[1] = in vivo
[2] = tested on: specific receptor target of brimonidine located in retina and iris-ciliary body

vitreal clearance [1]: 0.487 mL/day | brimonidine concentration required for optic neuroprotection [2]: ≥ 2 nM
SMILES: Brc1c(NC2=NCCN2)ccc2nccnc12 [brimonidine, 5-bromo-6-(2-imidazolidinylideneamino)quinoxaline tartrate]

— patent publication US8969415B2, “Intraocular drug delivery systems” (Allergan, Inc., priority 2006, dated 2015)
